In patent US6261826A, “Antibiotic TKR2648 and process for producing the same” (Takara Shuzo Co., Ltd., priority 1996, dated 2001):
≈ marks a conversion by molar mass, not a printed value. Entries after “also recorded” stand apart in the source; their conditions may differ.

Experiments:
B16 melanoma cells [1] = test: Cytotoxicity to B16 melanoma cells, alamarblue-method; format: cell-based
Protocol: (§1) Effect of the above TKR2648 on tumor cells was examined by measuring inhibitory activity of the metastatic ability of tumor cells, which were inoculated into animals after incubation with TKR2648 for several hours. EL-4 lymphoma or B16 melanoma cells were cultured in RPMI 1640 medium containing 10% of fetal calf serum, and various concentrations of TKR2648 were added to the culture of tumor cells. After overnight culture, cytotoxicity of TKR2648 to the cells was determined by alamarblue-method (Biosource International), and the cells treated with TKR2648 were recovered and injected to C57BL/6 (female) mice via tail vein. Ten days after the injection of EL-4, the mice were sacrified and their livers were obtained and weighed to determine metastasizing tumor cells as increase of weight. Fourteen days after the injection of B16 cells, the mice were scarified and their lungs were obtained and counted metastasizing melanoma colonies. […] This means that TKR2648 may be useful as an anticancer agent by inhibiting metastasis properties of tumor cells without affecting of proliferative properties of tumor cells.

Candida kefyr TIMM0301 = test: Minimal inhibitory concentration, liquid medium dilution method; format: cell-based
Protocol: (§2) The antifungal spectra of the above TKR2648 against various microorganisms were determined. Using the liquid medium dilution method, the concentration causing a substantially complete inhibition of fungal growth was determined as minimal inhibitory concentration (μg/ml). In the table, YNBG stands for a medium comprising 0.67% of yeast nitrogen base (manufactured by Difco) and 1.0% of glucose, and BHI stands for a medium comprising 0.5% of brain-heart infusion bouillon (manufactured by Nihon Pharmaceutical).

[2] = test system: Aspergillus fumigatus TIMM1776; test: as above; format: cell-based
Protocol: as §2

[3] = test system: Cryptococcus neoformans TIMM0354; test: as above; format: cell-based
Protocol: as §2

[4] = test system: Candida albicans TIMM0136; test: as above; format: cell-based
Protocol: as §2

ICR mice = test: Toxicity, intraperitoneal administration to mice; format: in vivo; settings: 50 mg/kg
Solubility = format: physicochemical
B16 melanoma cells [5] = test: Inhibition of metastasis of treated B16 cells injected into mice (lung colonies); format: in vivo, C57BL/6 (female) mice; settings: for Inhibition of metastasis / Colony number of melanoma mean ± SD: fourteen days after injection; for Colony number of melanoma mean ± SD: lungs
Protocol: as §1

EL-4 lymphoma cells [6] = test: Inhibition of metastasis of treated EL-4 cells injected into mice (liver weight); format: in vivo, C57BL/6 (female) mice; settings: for Inhibition of metastasis / Increase of liver weight mean ± SD: ten days after injection; for Increase of liver weight mean ± SD: * p<0.001
Protocol: as §1

EL-4 lymphoma cells [7] = test: Cytotoxicity to EL-4 lymphoma cells, alamarblue-method; format: cell-based
Protocol: as §1

[8] = in words, at concentrations inhibiting metastasis
[9] = B16 cells treated at 0.156 μg/ml
[10] = B16 cells treated at 0.625 μg/ml
[11] = in words, at the concentrations showing little cytotoxicity
[12] = EL4 cells treated at 0.156 μg/ml
[13] = EL4 cells treated at 0.313 μg/ml
[14] = EL4 cells treated at 0.625 μg/ml

CCCCC(=O)OC1CC(OC)=CC(=O)O1 (centres unmarked) [TKR2648]
cytotoxicity at 0.156 µg/mL (B16 melanoma cells [1]; Mus musculus, B16, 0.156 μg/ml, overnight culture): 4.5% | cytotoxicity at 0.625 µg/mL (B16 melanoma cells [1]; Mus musculus, B16, 0.625 μg/ml, overnight culture): 14.1% | cytotoxicity at 2.5 µg/mL (B16 melanoma cells [1]; Mus musculus, B16, 2.5 μg/ml, overnight culture): 51.3% | Cytotoxicity (B16 melanoma cells [1]; [8]): little cytotoxicity | MIC (Candida kefyr TIMM0301; Kluyveromyces marxianus, TIMM0301, YNBG medium): 50 µg/mL (≈ 219 µM) | Antifungal activity (Candida kefyr TIMM0301; in words): active | MIC ([2]; Aspergillus fumigatus, TIMM1776, BHI medium): 6.25 µg/mL (≈ 27.4 µM) | Antifungal activity ([2]; in words): active | MIC ([3]; Cryptococcus neoformans, TIMM0354, YNBG medium): 3.13 µg/mL (≈ 13.7 µM) | Antifungal activity ([3]; in words): active | MIC ([4]; Candida albicans, TIMM0136, YNBG medium): 100 µg/mL (≈ 438 µM) | Antifungal activity ([4]; in words): active | Toxic signs (ICR mice): no toxic signs | Solubility (Solubility; in chloroform): Soluble | Solubility (Solubility; in hexane): practically insoluble; also recorded: sparingly soluble | Solubility (Solubility; in methanol): Soluble | Solubility (Solubility; in water): practically insoluble; also recorded: sparingly soluble | Inhibition of metastasis (B16 melanoma cells [5]; [9]): 9.6% | Colony number of melanoma mean ± SD (B16 melanoma cells [5]; [9]): 58.3 ± 16.3 | Inhibition of metastasis (B16 melanoma cells [5]; [10]): 29.7% | Colony number of melanoma mean ± SD (B16 melanoma cells [5]; [10]): 45.3 ± 3.8 | Inhibition of metastasis (B16 melanoma cells [5]; B16 cells treated at 2.5 μg/ml): 96.4% | Colony number of melanoma mean ± SD (B16 melanoma cells [5]; B16 cells treated at 2.5 μg/ml, * p<0.001): 2.3 ± 2.3 | Metastasis of B16 tumor cells to normal tissues (B16 melanoma cells [5]; [11]): inhibited metastasis | Inhibition of metastasis (EL-4 lymphoma cells [6]; [12]): 47.4% | Increase of liver weight mean ± SD (EL-4 lymphoma cells [6]; [12]): 0.630 ± 0.107 g | Inhibition of metastasis (EL-4 lymphoma cells [6]; [13]): 67.4% | Increase of liver weight mean ± SD (EL-4 lymphoma cells [6]; [13]): 0.391 ± 0.148 g | Inhibition of metastasis (EL-4 lymphoma cells [6]; [14]): 89.3% | Increase of liver weight mean ± SD (EL-4 lymphoma cells [6]; [14]): 0.128 ± 0.043 g | Metastasis of EL-4 tumor cells to normal tissues (EL-4 lymphoma cells [6]; [11]): inhibited metastasis | cytotoxicity at 0.156 µg/mL (EL-4 lymphoma cells [7]; Mus musculus, EL4, 0.156 μg/ml, overnight culture): 4.5% | cytotoxicity at 0.313 µg/mL (EL-4 lymphoma cells [7]; Mus musculus, EL4, 0.313 μg/ml, overnight culture): 15.7% | cytotoxicity at 0.625 µg/mL (EL-4 lymphoma cells [7]; Mus musculus, EL4, 0.625 μg/ml, overnight culture): 35.1% | Cytotoxicity (EL-4 lymphoma cells [7]; [8]): little cytotoxicity
